In ChEMBL document CHEMBL5370555, “Design, synthesis, and evaluation of PD-1/PD-L1 small-molecule inhibitors bearing a rigid indane scaffold” (Eur J Med Chem, 2023) one finds IC50, Activity and mortality data, which are given here for 32 compounds.

Calls of active or inactive are those of the source. The rule behind the calls is not given here.

Series [1] deals with Programmed cell death protein 1/Programmed cell death 1 ligand 1 (Homo sapiens, UniProt Q15116+Q9NZQ7). As to the kind of experiment: Inhibition of PD-1/PD-L1 (unknown origin) protein-protein interaction incubated for 15 mins by TR-FRET assay. Type of series: protein-complex assay.
Series [2] deals with MDA-MB-231. As to the kind of experiment: Cytotoxicity against human MDA-MB-231 cells at 1.0 uM incubated for 24 hrs by CCK-8 method. Type of series: functional, cell-based. For orientation: Tetrazolium assays rely on reduction of a dye to a coloured formazan, in cell work by metabolically active cells.
Series [3] deals with MDA-MB-231. As to the kind of experiment: Cytotoxicity against human MDA-MB-231 cells at 8 uM incubated for 24 hrs by CCK-8 method. The format is functional, cell-based.
Series [4] has as its system PBMC. As to the kind of experiment: Cytotoxicity against human PBMC cells at < 8 uM incubated for 24 hrs by CCK-8 method. The format is toxicity, cell-based.
The test system of series [5] is Jurkat. As to the kind of experiment: Restoration of PD-L1 mediated IFN-gamma release in anti-CD3/CD28 stimulated human Jurkat cells incubated for 24 hrs by ELISA method. The format is functional, cell-based. The note with it: dose 0.25-2 µM. Background: An ELISA detects its analyte on a solid surface through an enzyme-linked reagent.
For series [6], the system named is Jurkat. As to the kind of experiment: Cytotoxicity against human Jurkat cells at < 8 uM incubated for 24 hrs by CCK-8 method. Type of series: functional, cell-based.
Series [7] concerns RKO. As to the kind of experiment: Cytotoxicity against human RKO cells at 8 uM incubated for 24 hrs by CCK-8 method. The format is functional, cell-based.
Series [8] relates to MDA-MB-231. As to the kind of experiment: Antitumor immunity against human MDA-MB-231 cells cocultured with CD3/CD28/CD2 T cell activator stimulated human PBMC cells assessed as killing activity cell mortality rate at 0.5 uM pre-treated with compound for 2 hrs followed by addition of CD3/CD28/CD2 T cell activator stimulated human PBMC cells and measured after 12 hrs relative to control. The format is functional. The conditions noted are these: time 14 hrs.

Series [9] has as its system MDA-MB-231. As to the kind of experiment: Antitumor immunity against human MDA-MB-231 cells cocultured with CD3/CD28/CD2 T cell activator stimulated human PBMC cells assessed as killing activity at 0.25 to 1 uM pre-treated with compound for 2 hrs followed by addition of CD3/CD28/CD2 T cell activator stimulated human PBMC cells and measured after 12 hrs. The format is functional, cell-based. The note with it: dose 0.25-1 µM, time 14.0 hrs.

In series [10] the test system is Jurkat. As to the kind of experiment: Restoration of PD-L1 mediated IFN-gamma release in anti-CD3/CD28 stimulated human Jurkat cells at 0.5 uM incubated for 24 hrs by ELISA method. The format is functional, cell-based.

Programmed cell death protein 1/Programmed cell death 1 ligand 1, sequence (Q15116 whole entry): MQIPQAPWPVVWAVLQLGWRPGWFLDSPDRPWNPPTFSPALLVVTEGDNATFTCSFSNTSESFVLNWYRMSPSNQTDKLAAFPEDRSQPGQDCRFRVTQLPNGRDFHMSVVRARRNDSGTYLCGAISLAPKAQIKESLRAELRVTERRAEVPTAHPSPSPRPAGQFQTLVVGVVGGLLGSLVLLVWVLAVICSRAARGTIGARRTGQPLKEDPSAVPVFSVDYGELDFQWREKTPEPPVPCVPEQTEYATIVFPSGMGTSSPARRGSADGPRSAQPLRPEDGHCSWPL
Programmed cell death protein 1/Programmed cell death 1 ligand 1, sequence (Q9NZQ7 whole entry): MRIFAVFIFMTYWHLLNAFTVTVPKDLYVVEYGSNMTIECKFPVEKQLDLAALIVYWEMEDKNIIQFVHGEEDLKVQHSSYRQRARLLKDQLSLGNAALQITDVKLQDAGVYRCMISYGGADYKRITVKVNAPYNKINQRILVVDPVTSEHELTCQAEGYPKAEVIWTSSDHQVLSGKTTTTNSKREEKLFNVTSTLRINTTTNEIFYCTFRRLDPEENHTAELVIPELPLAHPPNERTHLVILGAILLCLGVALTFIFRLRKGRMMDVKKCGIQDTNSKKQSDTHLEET

On to `COc1nc(O[C@H]2CCc3c(-c4ccc5c(c4)OCCO5)cccc32)c(Cl)cc1CNCCNC(C)=O`, for which the IC50 (commonly the concentration that gives 50% inhibition) in series [1] turned out to be 16.3 nM. This counts as double-digit nanomolar.

As to `COc1nc(O[C@H]2CCc3c(-c4ccc5[nH]ccc5c4)cccc32)c(Cl)cc1CNCCO`, the IC50 in series [1] is greater than 100 nM.

In the case of `COc1nc(O[C@H]2CCc3c(-c4ccc5c(c4)OCCO5)cccc32)c(Cl)cc1CNCC(F)(F)F`, in series [1], 67 nM corresponded to half-maximal inhibition (IC50). In other words, the double-digit nanomolar range. Take `COc1nc(O[C@H]2CCc3c(-c4ccccc4F)cccc32)c(Cl)cc1CNCCO`: the outcome in series [2] was inactive. For the same compound, the result in [3], in series [6], in [7], in series [9] and in series [10] was Active. In addition, the Activity result in series [4] was “Non-Toxic”; in [5], “Dose-Dependent Effect”. In addition, in [8], the mortality (commonly the share of the test organisms that died) at 0.5 µM is 40.9%. Also, half-maximal inhibition in series [1] (IC50) required 2.2 nM. For `COc1nc(O[C@H]2CCc3c(-c4ccc5ccccc5c4)cccc32)c(Cl)cc1CNCCO`, in series [1], the IC50 was greater than 100 nM. Same read-out and setting: in the case of `COc1nc(O[C@H]2CCc3c(-c4ccc(F)c(F)c4)cccc32)c(Cl)cc1CNCCO` it was 55.6 nM; in that of `COc1nc(O[C@H]2CCc3c(-c4ccc5c(c4)OCCO5)cccc32)c(Cl)cc1CNCCC(N)=O`, 20.3 nM; in that of `COc1ccc(-c2cccc3c2CC[C@@H]3Oc2nc(OC)c(CNCCO)cc2Cl)cc1OC`, greater than 100 nM.

On to `COc1nc(O[C@H]2CCc3c(-c4ccccc4)cccc32)ccc1CNCCNC(C)=O`, for which it took 21 nM to reach half-maximal inhibition in series [1] (IC50). As to `COc1nc(O[C@H]2CCc3c(-c4ccc(F)cc4)cccc32)c(Cl)cc1CNCCO`, the IC50 in [1] was 37.8 nM. For the compound `COc1nc(OCc2cccc(-c3ccccc3)c2C)ccc1CNCCNC(C)=O`, the mortality at 0.5 µM in series [8] is 45.1%.

For `COc1nc(O[C@H]2CCc3c(-c4ccc5c(c4)OCCO5)cccc32)c(Cl)cc1CN1CC[C@@H](O)C1`, the IC50 in [1] was 69.4 nM.

Turning to `COc1nc(O[C@@H]2CCc3c(-c4ccc5c(c4)OCCO5)cccc32)c(Cl)cc1CN1CC(O)C1`, in series [1], the IC50 was 19.6 nM. Same read-out and setting: in the case of `COc1nc(O[C@H]2CCc3c(-c4ccc5c(c4)OCCO5)cccc32)c(Cl)cc1CNCCN(C)C` it was 46.2 nM. The same measure, in the same setting: in the case of `COc1nc(O[C@H]2CCc3c(-c4ccc5c(c4)OCCO5)cccc32)c(Br)cc1CNCCO` it was 51 nM; in that of `COc1nc(O[C@H]2CCc3c(-c4ccc5c(c4)OCCO5)cccc32)c(Cl)cc1CNC[C@@H](O)CO`, 13.3 nM. Same read-out and setting: in the case of `COc1nc(O[C@H]2CCc3c(-c4ccc5c(c4)OCCO5)cccc32)c(Cl)cc1CNCCO` it was 10.2 nM. In series [1], `COc1nc(O[C@@H]2CCc3c(-c4ccccc4)cccc32)ccc1CNCCO` came in with an IC50 of 57.8 nM. The same measure, in the same setting: as for `COc1nc(O[C@H]2CCCc3c(-c4ccccc4)cccc32)ccc1CNCCNC(C)=O`, the figure is 47.6 nM; as for `COCCNCc1cc(Cl)c(O[C@H]2CCc3c(-c4ccc5c(c4)OCCO5)cccc32)nc1OC`, 43.1 nM; as for `COc1nc(O[C@H]2CCc3c(-c4ccccc4)cccc32)ccc1CNCCO`, 24.4 nM.

The compound `COc1nc(O[C@H]2CCc3c(-c4ccc5c(c4)OCCO5)cccc32)c(Cl)cc1CN1CC[C@H](C(=O)O)C1` showed an IC50 in series [1] of 16.4 nM. The compound `COc1nc(O[C@H]2CCc3c(-c4ccccc4)cccc32)c(Cl)cc1CNCCO` gave an IC50 in [1] of 7.5 nM. Compared with the last compound, the IC50 is about 2.2-fold lower. Consider `COc1nc(O[C@H]2CCCc3c(-c4ccccc4)cccc32)ccc1CNCCO`, for which the IC50 in series [1] is greater than 100 nM. The same measure, in the same setting: in the case of `COc1nc(O[C@H]2CCc3c(-c4ccc5c(c4)OCO5)cccc32)c(Cl)cc1CNCCO` it was 24.9 nM. On the same count and under the same terms, as for `COCCOc1cccc(-c2cccc3c2CC[C@@H]3Oc2nc(OC)c(CNCCO)cc2Cl)c1`, the figure is 94.5 nM; as for `COc1nc(O[C@@H]2CCc3c(-c4ccccc4)cccc32)ccc1CNCCNC(C)=O`, 84.8 nM; as for `COc1cccc(-c2cccc3c2CC[C@@H]3Oc2nc(OC)c(CNCCO)cc2Cl)c1`, greater than 100 nM. `COc1nc(O[C@H]2CCc3c(-c4cccc(F)c4)cccc32)c(Cl)cc1CNCCO` had an IC50 in [1] of 24.7 nM. `COc1nc(O[C@H]2CCc3c(-c4ccc5c(c4)OCCO5)cccc32)c(Cl)cc1CNC[C@@H](O)CC(=O)O` came in with an IC50 in [1] of 14 nM. `COc1nc(O[C@H]2CCc3c(-c4ccc5c(c4)OCCO5)cccc32)c(Cl)cc1CN1CC[C@H](O)C1`: the IC50 in [1] worked out at 18 nM. This IC50 and that of the compound before are within 1.5-fold of each other. As to `COc1nc(O[C@H]2CCc3c(-c4ccc5c(c4)OCCO5)cccc32)c(Cl)cc1CNC[C@@H]1CCC(=O)N1`, in series [1], half-maximal inhibition (IC50) was put at 15.7 nM. This IC50 and that of the compound before are within 1.5-fold of each other.
